Source: patent US20260325504A1, “Genetically Engineered Human Pituitary Corticotroph Tumor Organoids Exhibit Divergent Responses to Selective Glucocorticoid Receptor Modulators” (Corcept Therapeutics Incorporated, priority 2022, published 2026)
Entries after “also recorded” stand apart in the source; their conditions may differ.

Assays:
Assay type in all cases: cell-based, human
ACTH [1] = test: Spectral flow cytometry, ACTH positive cells, iPSCUSP48MV organoids; settings: 48 h, FIGS. 8C, G
Experimental: (§1) Sonic Hedgehog (SHH) was withdrawn from the organoid growth media 16 hours prior to treatment. The experimental treatment groups included: vehicle (Veh), mifepristone (500 nM, Selleckchem S2606), GANT61 (5 μM, Stemcell Technologies 73692), ketoconazole (Keto, 10 μM, Selleckchem S1353), pasireotide (Pas, 100 nM, Target Mol TP2207-SB001), octreotide (Oct, 100 nM, Selleckchem P1017), mifepristone plus GANT61, mifepristone plus Keto, mifepristone plus Pas, relacorilant (500 nM, Corcept Therapeutics CORT125134), relacorilant plus Pas, relacorilant plus Oct, or dexamethasone (Dexa, 100 nM, SIGMA S4902). In the combination treatments, cultures were pretreated with the GANT61, Keto, Pas or Oct for 2 hours prior to treatment with mifepristone or Rela. PitNET tissue derived organoids hPITO36, hPITO37, hPITO38, hPITO39, and hPITO40 were treated with the following experimental conditions: Vehicle (1), pasireotide (2), relacorilant (3), relacorilant & pasireotide (4), mifepristone (5), mifepristone & pasireotide (6). The IC50 values used for each hPITO line for each drug were determined based on dose responses (FIG. 12). All organoid cultures were treated for 48 hours prior to analysis.
The multicolor flow cytometry antibody panel was designed using the Cytek® Full Spectrum Viewer online tool to calculate the similarity index. Organoids were harvested in cold Serum-Free Defined Medium media and incubated with Zombie (BioLegend 423107, 1:100) for 15 minutes in the dark at room temperature, followed by incubation with fluorochrome-conjugated/unconjugated primary surface or cytoplasmic antibodies (Table 6) at 4° C. for 30 minutes. Cells were then washed with Cell Staining Buffer (BioLegend 420-201) and incubated at 4° C. for 30 minutes with secondary antibodies (Table 6). Cells were fixed using Cytofix/Cytoperm™ Fixation/Permeabilization Solution (BD Biosciences 554714) and washed with Fixation/Permeabilization wash buffer according to the recommended protocol. […] Data was acquired using the Cytek® Aurora, analyzed using Cytobank Premium software (Beckman Coulter).

iPSC^USP48MV organoids = test: EdU uptake (proliferation) in iPSCUSP48MV organoids; settings: compound alone, 500 nM, 48 h
Experimental: iPSCs were stained for pituitary specific hormones including luteinizing hormone (LH), follicle-stimulating hormone (FSH), growth hormone (GH), prolactin (PRL), ACTH, cytokeratin 8/18 (CAM5.2), pituitary transcription factor PIT-1 and neuroendocrine marker Synaptophysin (Table 5). Cultures were immunostained for proliferation marker EdU (Click-IT EdU Alexa Fluor 555 Imaging Kit, Thermo Fisher Scientific C10338). Antibody dilutions were determined based on manufacturer guidelines and antibody titration (Table 5). Staining was conducted according to previously published protocols. Briefly, organoids and iPSCs grown in 8-well glass bottom chamber slides were fixed using 3.7% formaldehyde, washed with DPBS, permeabilized with 0.5% Triton X-100 (SIGMA X-100, PBS-T, 20 min at room temperature), washed with 0.01% PBS-T, and blocked with 2% donkey serum (Jackson Immuno Research 017-000-121) for 1 hour at room temperature. After blocking, primary antibodies were added and incubated overnight at 4° C. Slides were washed with 0.01% PBS-T and incubated with secondary antibodies (Table 5) with Hoechst (Thermo Fisher Scientific H1399) for 1 hour at room temperature. Organoids were washed and stored in PBS at 4° C. until microscopic analysis. High content confocal microscopy was performed using the Nikon Ti2-E Inverted Microscope (with a Crest X-Light V2 L-FOV Spinning Disk Confocal) at the University of Arizona Cancer Center, or a ZEISS LSM880 34 channel Laser Scanning Confocal Microscope at University of Arizona Marley Imaging Core. Fluorescence intensity was quantified as the percentage of marker-positive cells versus total cells, using Nikon Elements Software (Version 5.21.05). Proliferation for each iPSC line was quantified as the percentage of EdU-positive cells versus total cells.
as §1, with “PitNET tissue derived organoids hPITO36, hPITO37, hPITO38, hPITO39, and hPITO40 were treated with the following experimental conditions: Vehicle (1), pasireotide (2), relacorilant (3), relacorilant & pasireotide (4), mifepristone (5), mifepristone & pasireotide (6).” left out, “All organoid cultures were treated for 48 hours prior to analysis.” left out

ACTH [2] = test: Spectral flow cytometry, ACTH positive cells, hPITOs
From the text: 1.3 Generation and Culture of Human PitNET Tissue Organoids (hPITOs)
Patients undergoing planned transsphenoidal surgery for PitNETs were identified in the outpatient neuroendocrinology and neurosurgery clinics and collected by the St. Joseph's Hospital and Barrow Neurological Institute Biobank under the collection protocol PHXA-05TS038, and outcomes data protocol PHXA-0004-72-29 with approval of the Institutional Review Board (IRB) and patient consent. De-identified samples were shipped in collection and transport media (Table 3) to the Zavros laboratory (University of Arizona) for processing within 24 hours of collection. Resected PitNET tissues were washed with Dulbeccos Phosphate Buffered Saline (DPBS) supplemented with 1× Penicillin/Streptomycin, 1× Kanamycin and 1× Amphotericin/Gentamycin, minced into smaller pieces, and incubated with digestion buffer (Dulbecco's Modified Eagle Medium/Nutrient Mixture F-12 (DMEM/F12) supplemented with 0.4% Collagenase 2, 0.1% Hyaluronic Acid, 0.03% Trypsin). The tissue was incubated with Accutase (Thermo Fisher Scientific) for a further 5 minutes, and the cells were pelleted and washed with DPBS supplemented with antibiotics. Dissociated cells were then seeded as Matrigel™ domes in culture dishes and overlaid with growth media (Table 4). Media was replaced every 3 days and organoids were harvested for downstream experiments or passaged after 15 days of culture (FIG. 1B).
Sonic Hedgehog (SHH) was withdrawn from the organoid growth media 16 hours prior to treatment. […] The IC50 values used for each hPITO line for each drug were determined based on dose responses (FIG. 12). […]

Row | Structure (SMILES) | ACTH positive cells / ACTH expression (ACTH [1]) | proliferation (EdU uptake) (iPSC^USP48MV organoids) | number of ACTH expressing cells / ACTH (ACTH [2]; hPITO, 48 h, FIGS. 9I, J) | ACTH positive cells / ACTH expression (ACTH [1]; listed as Relacorilant) | sensitization of organoids to pasireotide (ACTH [2]; CD PitNET tissue derived organoids)
1 | CC#C[C@]1(O)CC[C@H]2[C@@H]3CCC4=CC(=O)CCC4=C3[C@@H](c3ccc(N(C)C)cc3)C[C@@]21C [mifepristone, 11β-(4-dimethylaminophenyl)-17ß-hydroxy-17α-(1-propynyl)-estra-4,9-dien-3-one] | significant induction in the number of ACTH positive cells; also recorded: significantly increased the ACTH expression levels | significant increase in cell proliferation | significantly increased the number of ACTH expressing cells |  | 
2 | Cn1cc(S(=O)(=O)N2CCC3=Cc4c(cnn4-c4ccc(F)cc4)C[C@]3(C(=O)c3cc(C(F)(F)F)ccn3)C2)cn1 [relacorilant, (R)-(1-(4-fluorophenyl)-6-((1-methyl-1H-pyrazol-4-yl)sulfonyl)-4,4a,5,6,7,8-hexahydro-1H-pyrazolo[3,4-g]isoquinolin-4a-yl) (4-(trifluoromethyl)pyridin-2-yl) methanone] | did not significantly increase the number of ACTH-positive cells | did not induce organoid proliferation |  | did not significantly increase ACTH | sensitizes CD PitNET tissue derived organoids to pasireotide; also recorded: sensitized organoid tumor cells to suppression of ACTH by pasireotide
